Results as given in patent US5580982A, “Substituted 3-(aminoalkylamino)-1,2-benzisoxazoles and related compounds” (priority 1995, dated 1996).

How the values were obtained:
MAO-A = target: T1, MAO-A (Rattus norvegicus, UniProt P21396); test: Inhibition of Type A monoamine oxidase activity in rat brain synaptosomes; format: biochemical; settings: substrate [^3 H]-5HT 200 μM; read-out: Inhibitory Concentration - IC50 MAO-A
T1 construct: the whole brain without cerebellum was dissected rapidly and frozen on dry ice; from tissue; host or cells: whole brain without cerebellum of orally dosed male Wistar rats, homogenate
T1 sequence (P21396 1-526): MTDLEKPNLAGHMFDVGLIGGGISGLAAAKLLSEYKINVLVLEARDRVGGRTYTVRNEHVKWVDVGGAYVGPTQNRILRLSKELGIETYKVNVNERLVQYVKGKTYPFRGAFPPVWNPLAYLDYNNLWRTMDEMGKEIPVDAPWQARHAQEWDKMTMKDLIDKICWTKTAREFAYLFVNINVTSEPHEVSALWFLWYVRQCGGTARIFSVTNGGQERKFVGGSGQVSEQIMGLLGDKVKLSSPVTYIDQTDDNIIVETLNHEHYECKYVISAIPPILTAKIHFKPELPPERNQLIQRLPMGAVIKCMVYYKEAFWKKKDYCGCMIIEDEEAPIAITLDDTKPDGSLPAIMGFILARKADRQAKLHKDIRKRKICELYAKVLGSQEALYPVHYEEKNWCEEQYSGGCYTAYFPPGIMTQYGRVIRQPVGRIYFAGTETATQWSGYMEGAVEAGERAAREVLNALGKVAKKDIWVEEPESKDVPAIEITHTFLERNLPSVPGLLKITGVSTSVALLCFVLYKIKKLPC
Protocol: Inhibition of Type A and Type B Monoamine Oxidase Activity in Rat Brain Synaptosomes
To determine the selective inhibition of the two forms of monoamine oxidase (MAO).
Although various methods for measuring MAO activity are available, the described method involves the extraction of the radiolabeled deaminated metabolites of [^3 H]-5HT or [^14 C]-β-phenethylamine. This procedure allows MAO-A and MAO-B activities to be measured either simultaneously or individually (3).
c. Add 12 μl of [^3 H]-5HT to 2 ml of the 5 mM 5HT solution. (Final amine concentration in the assay is 200 μM: see below.)
5. Equal amounts of MAO-A (5HT) and MAO-B (PEA) substrates are combined for simultaneously testing both MAO types, i.e. mixed stock solution of 2.5 mM 5HT and 2.5 mM PEA, 40 μl of this mixed solution gives a 200 μM final concentration of each amine in the assay. When testing only one MAO type, the individual 5 mM stock solutions must be diluted 1:1 with distilled water prior to adding 40 μl to the incubation mixture; i.e., same 200 μM final amine concentration.
Male Wistar rats weighing 150-250 grams were sacrificed and the brains rapidly removed. Whole brain minus cerebellum was homogenized in 30 volumes of ice-cold, phosphate-buffered 0.25M sucrose, using a Potter-Elvejhem homogenizer. The homogenate was centrifuged at 1000 g for 10 minutes and the supernatant (S1) decanted and recentrifuged at 18,000 g for 20 minutes. The resulting pellet (P2) was resuspended in fresh 0.25M sucrose and served as the tissue source for mitochondrial MAO.
Tubes are preincubated for 15 minutes at 37° C. and the assay is started by adding 40 μl of combined substrate ([^3 H]-5HT and [^14 C]-PEA) at 15 second intervals. The tubes are incubated for 30 minutes at 37° C. and the reaction stopped by the addition of 0.3 ml 2N HCl. Tissue blank values are determined by adding the acid before the radioactive substrate. The oxidative products of the reaction are extracted with ethyl acetate/toluene (1:1). 5 ml of this mixture is added to the tubes. The resultant mixture is vortexed for 15 seconds to extract the deaminated metabolites into the organic phase and the latter is allowed to separate from the aqueous phase. The tubes are placed in acetone/dry ice bath to freeze the aqueous layer. When this layer is frozen, the top organic layer is poured into a scintillation vial. 10 ml of Liquiscint is added and the samples are counted using window settings for ^14 C in one channel and ^3 H in the second channel. IC50 values are determined by log-probit analysis.

MAO-B = target: T2, MAO-B (Rattus norvegicus, UniProt P19643); test: Inhibition of Type B monoamine oxidase activity in rat brain synaptosomes; format: biochemical; settings: substrate [^14 C]-PEA 200 μM; read-out: Inhibitory Concentration - IC50 MAO-B
T2 construct: the whole brain without cerebellum was dissected rapidly and frozen on dry ice; from tissue; host or cells: whole brain without cerebellum of orally dosed male Wistar rats, homogenate
T2 sequence (P19643 1-520): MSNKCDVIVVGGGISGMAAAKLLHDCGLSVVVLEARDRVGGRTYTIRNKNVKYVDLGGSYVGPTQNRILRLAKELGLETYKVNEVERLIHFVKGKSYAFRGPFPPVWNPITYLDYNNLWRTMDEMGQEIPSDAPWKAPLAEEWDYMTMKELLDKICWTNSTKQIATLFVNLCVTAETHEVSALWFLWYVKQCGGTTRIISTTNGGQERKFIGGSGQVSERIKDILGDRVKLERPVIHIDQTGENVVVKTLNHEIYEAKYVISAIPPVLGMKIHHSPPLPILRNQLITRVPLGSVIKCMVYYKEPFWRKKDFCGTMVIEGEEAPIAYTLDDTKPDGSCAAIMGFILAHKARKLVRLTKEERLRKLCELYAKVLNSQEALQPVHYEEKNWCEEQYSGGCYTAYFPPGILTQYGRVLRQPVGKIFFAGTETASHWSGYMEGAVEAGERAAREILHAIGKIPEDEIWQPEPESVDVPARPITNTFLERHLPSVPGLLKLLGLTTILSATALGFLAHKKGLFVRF
Description: Male Wistar rats weighing 150-250 grams were sacrificed and the brains rapidly removed.

Structure (SMILES) | IC50 (MAO-A) | IC50 (MAO-B)
COc1ccc2c(N(C)CCN3CCOCC3)noc2c1 [6-Methoxy-N-methyl-N-[2-(4-morpholinyl)ethyl]-1,2-benzisoxazol-3-amine] | 13 µM | > 1000 µM
CNCCNc1noc2cc(OC)ccc12 [6-Methoxy-N-[2-(methylamino)ethyl)-1,2-benzisoxazol-3-amine] | 25 µM | 
COc1cc(Br)c2oc(C3CCNCC3)cc2c1 [Brofaromine, reference compound] | 0.18 µM | 
COc1ccc2c(N3CCN(c4ccncc4)CC3)noc2c1 [6-Methoxy-3-[1-(4-pyridyl)piperazinyl)]-1,2-benzisoxazole] | 10 µM | 45 µM
